Laboratory results reported in the supplement of paper PMC10627819.

What was measured:
[1] = tested on: S. pneumoniae D39V; experiment: fitness (endpoint OD595 vs no drug) (fraction); higher = more growth
Summary of the method: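 Cultures at OD595 0.01 were dispensed into 384-well plates in TSB, LB Lennox or CY and incubated at 37 °C. Every 30 min for 14 h, OD595 was read and corrected by the first reading. Fitness is the optical density at entry into stationary phase relative to the robust mean of no-drug control wells, capped at 1.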

[2] = tested on: B. subtilis 168; experiment: Bliss interaction score (quartile over a dose matrix) (fitness difference); higher = more antagonism (negative = synergy)
Summary of the method: (§1)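 Quartiles summarise the Bliss score over technical, biological and donor/recipient replicates, where the score is observed minus expected fitness under a product model. Expected fitness uses single-drug values inferred from combination data. Fitness is OD595 at entry into stationary phase over the plate's robust no-drug mean, capped at 1.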

[3] = tested on: S. aureus DSM 20231; experiment: as above
Summary of the method: as §1

[4] = tested on: S. aureus Newman; experiment: as above
Summary of the method: as §1

[5] = tested on: S. pneumoniae D39V; experiment: as above
Summary of the method: as §1
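Wherever Bliss interaction score (quartile over a dose matrix) is given: first quartile when negative (synergy) and third quartile when positive (antagonism).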

`C[C@@H]1O[C@@H]1P(=O)(O)O` [Fosfomycin] + CO[C@H]1/C=C/O[C@@]2(C)Oc3c(C)c(O)c4c(O)c(c(/C=N/N5CCN(C)CC5)c(O)c4c3C2=O)NC(=O)/C(C)=C\C=C\[C@H](C)[C@H](O)[C@@H](C)[C@@H](O)[C@@H](C)[C@H](OC(C)=O)[C@@H]1C [Rifampicin] showed a fitness ([1]; first compound 1.25 µg/mL, partner 0.025 µg/mL) of 0.987, a fitness ([1]; first compound 1.25 µg/mL, partner 0.05 µg/mL) of 0.986 and a fitness ([1]; first compound 1.25 µg/mL, partner 0.2 µg/mL, one replicate) of 0. It also gave a fitness ([1]; first compound 2.5 µg/mL, partner 0.025 µg/mL) of 0.969, a fitness ([1]; first compound 2.5 µg/mL, partner 0.2 µg/mL, one replicate) of 0 and a fitness ([1]; first compound 5 µg/mL, partner 0.025 µg/mL) of 0.806. The fitness ([1]; first compound 5 µg/mL, partner 0.1 µg/mL) was 0.318, the fitness ([1]; first compound 5 µg/mL, partner 0.2 µg/mL, one replicate) was 0 and the Bliss interaction score [2] was -0.0436. The Bliss interaction score [3] was 0.036, the Bliss interaction score [4] was 0.0181 and the Bliss interaction score [5] was 0.0822.
Work on `C[C@H]1c2cccc(O)c2C(=O)C2=C(O)[C@]3(O)C(=O)C(C(N)=O)=C(O)[C@@H](N(C)C)[C@@H]3[C@@H](O)[C@@H]21` [Doxycycline] + C[C@@H](O)[C@H]1C(=O)N2C(C(=O)O)=C(SCCNC=N)C[C@H]12 [Imipenem] yielded a fitness ([1]; first compound 0.003875 µg/mL, partner 0.005 µg/mL, one replicate) of no less than 1, a fitness ([1]; first compound 0.003875 µg/mL, partner 0.01 µg/mL, one replicate) of no less than 1 and a fitness ([1]; first compound 0.003875 µg/mL, partner 0.02 µg/mL, one replicate) of no less than 1. For the same molecule, the fitness ([1]; first compound 0.00775 µg/mL, partner 0.005 µg/mL, one replicate) was 0.998, the fitness ([1]; first compound 0.00775 µg/mL, partner 0.01 µg/mL, one replicate) was 0.973 and the fitness ([1]; first compound 0.00775 µg/mL, partner 0.02 µg/mL, one replicate) was 0.993. For the same molecule, the fitness ([1]; first compound 0.0155 µg/mL, partner 0.005 µg/mL) was 0.989, the fitness ([1]; first compound 0.0155 µg/mL, partner 0.0065 µg/mL) was 0.886 and the fitness ([1]; first compound 0.0155 µg/mL, partner 0.01 µg/mL) was 0.931. It also gave a fitness ([1]; first compound 0.0155 µg/mL, partner 0.013 µg/mL) of 0.845, a fitness ([1]; first compound 0.0155 µg/mL, partner 0.02 µg/mL) of 0.928 and a fitness ([1]; first compound 0.0155 µg/mL, partner 0.026 µg/mL) of 0.746. It also gave a fitness ([1]; first compound 0.031 µg/mL, partner 0.005 µg/mL, one replicate) of 0.87, a fitness ([1]; first compound 0.031 µg/mL, partner 0.0065 µg/mL) of 0.825 and a fitness ([1]; first compound 0.031 µg/mL, partner 0.01 µg/mL, one replicate) of 0.808. The fitness ([1]; first compound 0.031 µg/mL, partner 0.013 µg/mL) was 0.826, the fitness ([1]; first compound 0.031 µg/mL, partner 0.02 µg/mL, one replicate) was 0.834 and the fitness ([1]; first compound 0.031 µg/mL, partner 0.026 µg/mL) was 0.789. For the same molecule, the fitness ([1]; first compound 0.062 µg/mL, partner 0.005 µg/mL, one replicate) was 0.739, the fitness ([1]; first compound 0.062 µg/mL, partner 0.0065 µg/mL) was 0.753 and the fitness ([1]; first compound 0.062 µg/mL, partner 0.01 µg/mL, one replicate) was 0.74. For the same molecule, the fitness ([1]; first compound 0.062 µg/mL, partner 0.013 µg/mL) was 0.78, the fitness ([1]; first compound 0.062 µg/mL, partner 0.02 µg/mL, one replicate) was 0.706 and the fitness ([1]; first compound 0.062 µg/mL, partner 0.026 µg/mL) was 0.759. The Bliss interaction score [2] was 0.222, the Bliss interaction score [3] was -0.0172 and the Bliss interaction score [4] was 0.0141. For the same molecule, the Bliss interaction score [5] was -0.0283.
`CO/N=C(\C(=O)N[C@@H]1C(=O)N2C(C(=O)O)=C(COC(N)=O)CS[C@H]12)c1ccco1` [Cefuroxime] + CO[C@@]12[C@H](COC(N)=O)C3=C(C(=O)C(C)=C(N)C3=O)N1C[C@@H]1N[C@@H]12 [MitomycinC] gave a Bliss interaction score [2] of -0.211, a Bliss interaction score [3] of -0.0745 and a Bliss interaction score [4] of -0.0903. The Bliss interaction score [5] was 0.0599.
Molecule `N#CC(C#N)=NNc1cccc(Cl)c1` [CCCP] + CN(C)c1cc(NC(=O)CNC(C)(C)C)c(O)c2c1C[C@H]1C[C@H]3[C@H](N(C)C)C(O)=C(C(N)=O)C(=O)[C@@]3(O)C(O)=C1C2=O [Tigecycline] has a Bliss interaction score [2] of -0.0512, a Bliss interaction score [3] of 0.0272 and a Bliss interaction score [4] of -0.0359. It also gave a Bliss interaction score [5] of 0.102.
In the case of `CN(C)[C@@H]1C(O)=C(C(N)=O)C(=O)[C@@]2(O)C(O)=C3C(=O)c4c(O)ccc(Cl)c4[C@@](C)(O)[C@H]3C[C@@H]12` [Clortetracycline] + CCCCCCCCCC(=O)N[C@@H]1[C@H]([C@@H]([C@H](O[C@H]1OC2=C3C=C4C=C2OC5=C(C=C(C=C5)[C@H]([C@H]6C(=O)N[C@@H](C7=C(C(=CC(=C7)O)OC8[C@H]([C@H]([C@@H]([C@H](O8)CO)O)O)O)C9=C(C=CC(=C9)[C@H](C(=O)N6)NC(=O)[C@@H]4NC(=O)[C@@H]1C2=CC(=CC(=C2)OC2=C(C=CC(=C2)[C@H](C(=O)N[C@H](CC2=CC(=C(O3)C=C2)Cl)C(=O)N1)N)O)O)O)C(=O)O)O[C@H]1[C@@H]([C@H]([C@@H]([C@H](O1)CO)O)O)NC(=O)C)Cl)CO)O)O [Teicoplanin], the Bliss interaction score ([2]; main component drawn) is reported as 0.0958, the Bliss interaction score ([3]; main component drawn) is reported as 0.111 and the Bliss interaction score ([4]; main component drawn) is reported as 0.0527. It also gave a Bliss interaction score ([5]; main component drawn) of -0.0412.
Molecule `CC(=O)Oc1ccccc1C(=O)O` [Acetylsalicylicacid] + C/C(=C\C(=O)OCCCCCCCCC(=O)O)C[C@@H]1OC[C@H](C[C@@H]2O[C@H]2[C@@H](C)[C@H](C)O)[C@@H](O)[C@H]1O [Pseudomonic acid] has a Bliss interaction score [2] of -0.2, a Bliss interaction score [3] of -0.0241 and a Bliss interaction score [4] of -0.0211. The Bliss interaction score [5] was -0.0974.
With `CC1(C)S[C@@H]2[C@H](NC(=O)Cc3ccccc3)C(=O)N2[C@H]1C(=O)O` [PenicillinG] + CC[C@H]1OC(=O)[C@H](C)C(=O)[C@H](C)[C@@H](O[C@@H]2O[C@H](C)C[C@H](N(C)C)[C@H]2O)[C@](C)(OC)C[C@@H](C)C(=O)[C@H](C)[C@H]2N(CCCCn3cnc(-c4cccnc4)c3)C(=O)O[C@]12C [Telithromycin] the Bliss interaction score [2] was 0.0511, the Bliss interaction score [3] was 0.0277 and the Bliss interaction score [4] was -0.0465. It also gave a Bliss interaction score [5] of 0.0452.
With `N#CC(C#N)=NNc1cccc(Cl)c1` [CCCP] + CN[C@H](CC(C)C)C(=O)N[C@H]1C(=O)N[C@@H](CC(N)=O)C(=O)N[C@H]2C(=O)N[C@H]3C(=O)N[C@H](C(=O)N[C@H](C(=O)O)c4cc(O)cc(O)c4-c4cc3ccc4O)[C@H](O[C@H]3C[C@](C)(N)[C@@H](O)[C@H](C)O3)c3ccc(c(Cl)c3)Oc3cc2cc(c3O[C@@H]2O[C@H](CO)[C@@H](O)[C@H](O)[C@H]2O[C@H]2C[C@](C)(NCc3ccc(-c4ccc(Cl)cc4)cc3)[C@@H](O)[C@H](C)O2)Oc2ccc(cc2Cl)[C@H]1O [Oritavancin] the Bliss interaction score [2] was 0.0275, the Bliss interaction score [3] was -0.0305 and the Bliss interaction score [4] was 0.0576. It also gave a Bliss interaction score [5] of 0.0676.
`CC(=O)Oc1ccccc1C(=O)O` [Acetylsalicylicacid] + CN[C@@H]1[C@H](O)[C@H](NC)[C@H]2O[C@@]3(O)C(=O)C[C@@H](C)O[C@H]3O[C@@H]2[C@H]1O [Spectinomycin] was tested, and the Bliss interaction score [2] was 0.137, the Bliss interaction score [3] was -0.0696 and the Bliss interaction score [4] was 0.0859. It also gave a Bliss interaction score [5] of -0.0679.
Molecule `COc1cccc2c1C(=O)c1c(O)c3c(c(O)c1C2=O)C[C@@](O)(C(=O)CO)C[C@@H]3O[C@H]1C[C@H](N)[C@H](O)[C@H](C)O1` [Doxorubicin] + CC[C@H]1OC(=O)[C@H](C)[C@@H](O[C@H]2C[C@@](C)(OC)[C@@H](O)[C@H](C)O2)[C@H](C)[C@@H](O[C@@H]2O[C@H](C)C[C@H](N(C)C)[C@H]2O)[C@](C)(O)C[C@@H](C)C(=O)[C@H](C)[C@@H](O)[C@]1(C)O [Erythromycin] has a Bliss interaction score [2] of 0.0769, a Bliss interaction score [3] of 0.0463 and a Bliss interaction score [4] of 0.0828. The Bliss interaction score [5] was 0.0705.
In the case of `O=C(O)c1cn(C2CC2)c2cc(N3CCNCC3)c(F)cc2c1=O` [Ciprofloxacin] + CC(=O)O[C@H]1C[C@@]2(C)[C@@H](C[C@@H](O)[C@H]3[C@@]4(C)CC[C@@H](O)[C@@H](C)[C@@H]4CC[C@@]32C)/C1=C(\CCC=C(C)C)C(=O)O [Fusidic acid], the Bliss interaction score [2] is reported as 0.19, the Bliss interaction score [3] is reported as 0.04 and the Bliss interaction score [4] is reported as 0.0831. It also gave a Bliss interaction score [5] of 0.0674.
Molecule `CO/N=C(\C(=O)N[C@@H]1C(=O)N2C(C(=O)O)=C(COC(C)=O)CS[C@H]12)c1csc(N)n1` [Cefotaxime] + CC[C@H]1OC(=O)[C@H](C)C(=O)[C@H](C)[C@@H](O[C@@H]2O[C@H](C)C[C@H](N(C)C)[C@H]2O)[C@](C)(OC)C[C@@H](C)C(=O)[C@H](C)[C@H]2N(CCCCn3cnc(-c4cccnc4)c3)C(=O)O[C@]12C [Telithromycin] has a Bliss interaction score [2] of 0.0749, a Bliss interaction score [3] of 0.0754 and a Bliss interaction score [4] of -0.033. The Bliss interaction score [5] was 0.0507.
